# Measured values: US9771353B2, “Kinase inhibitors based upon N-alkyl pyrazoles” (RESPIVERT LIMITED, priority 2013, dated 2017)
# pIC50: −log10 of the molar value.
# Legend:
# [1] = system: intestinal mucosa biopsies from UC patients; assay: Human biopsy assay (l): cytokine release from intestinal mucosa biopsies of ulcerative colitis patients; format: cell-based; conditions: 1 μg/mL, 24 hours
# Procedure: Intestinal mucosa biopsies are obtained from the inflamed regions of the colon of IBD patients. The biopsy material is cut into small pieces (2-3 mm) and placed on steel grids in an organ culture chamber at 37° C. in a 5% CO2/95% O2 atmosphere in serum-free media. DMSO control or test compounds at the desired concentration are added to the tissue and incubated for 24 hr in the organ culture chamber. The supernatant is harvested for determination of IL-6, IL-8, IL-1β and TNFα levels by R&D ELISA. Percentage inhibition of cytokine release by the test compounds is calculated relative to the cytokine release determined for the DMSO control (100%).
# [2] = system: TNBS-induced colitis in mice; assay: TNBS-induced colitis in mice, in vivo assay (iv), conducted over 2 days; conditions: for Ulcer grade: TNBS + Vehicle 4.3 ± 0.2; for LP inflammation: TNBS + Vehicle 4.7 ± 0.1
# Procedure: Non-fasted, 10-12 week old, male BDF1 mice are dosed by oral gavage twice daily with either vehicle (5 mL/kg), reference item (Budesonide 2.5 mg/kg) or test compound (1 or 5 mg/kg) one day before (Day −1) stimulation of the inflammatory response by treatment with 2,4,6-trinitrobenzenesulphonic acid (TNBS) (15 mg/mL in 50% ethanol/50% saline). On Day 0 of the study TNBS (200 μL) is administered intra-colonically via a plastic catheter with BID dosing of the vehicle, reference or test compound continuing for 2 or 4 days. During the study animals are weighed every day and stool observations are made and recorded as a score, based on stool consistency. At the time of sacrifice on Day 2 (or Day 4) the large intestine is removed and the length and weight recorded. Sections of the colon are taken for histopathology scoring to determine disease severity.
# d-U937 cells = assay: Accumulation of β catenin in d-U937 cells, assay (m); format: cell-based, human
# Procedure: U937 cells, a human monocytic cell line, are differentiated into macrophage-type cells by incubation with PMA; (100 ng/mL) for between 48 to 72 hr. The cells are then incubated with either final concentrations of test compound or vehicle for 18 hr. The induction of β-catenin by the test compounds is stopped by replacing the media with 4% formaldehyde solution. Endogenous peroxide activity is neutralised by incubating with quenching buffer (100 μL, 0.1% sodium azide, 1% H2O2 in PBS with 0.05% Tween-20) for 20 min. The cells are washed with washing buffer (200 μL; PBS containing 0.05% Tween-20) and incubated with blocking solution (200 μL; 5% milk in PBS) for 1 hr, re-washed with washing buffer (200 μL) and then incubated overnight with anti-β-catenin antibody solution (50 μL) in 1% BSA/PBS (BD, Oxford, UK).
# After washing with washing buffer (3×200 μL; PBS containing 0.05% Tween-20), cells are incubated with an HRP-conjugated secondary antibody solution (100 μL) in 1% BSA/PBS (Dako, Cambridge, UK) and the resultant signal is determined colourimetrically (OD: 450 nm with a reference wavelength of 655 nm) using TMB substrate (50 μL; R&D Systems, Abingdon, UK). This reaction is stopped by addition of 1N H2SO4 solution (50 μL). Cells are then washed with washing buffer and 2% crystal violet solution (50 μL) is applied for 30 min. After washing with washing buffer (3×200 μL), 1% SDS (100 μL) is added to each well and the plates are shaken lightly for 1 hr prior to measuring the absorbance at 595 nm (Varioskan® Flash, Thermo-Fisher Scientific).
# The measured OD450-655 readings are corrected for cell number by dividing the OD450-655 by the OD595 readings. The percentage induction for each well is calculated relative to vehicle, and the ratio of induction normalised in comparison with the induction produced by a standard control comprising of N-(4-(4-(3-(3-tert-butyl-1-p-tolyl-1H-pyrazol-5-yl)ureido)naphthalen-1-yloxy)pyridin-2-yl)-2-methoxyacetamide (1 μg/mL) which is defined as 100%.
# p38 MAPKα = p38 MAPKα (Homo sapiens (Human), UniProt Q16539); assay: p38 MAPKα enzyme inhibition (FRET, Z-LYTE), Method 2; format: biochemical
# c-Src = c-Src (Homo sapiens (Human), UniProt P12931); assay: c-Src enzyme inhibition (FRET, Z-LYTE); format: biochemical
# Procedure: The enzyme inhibitory activities of compounds disclosed herein are determined by FRET using synthetic peptides labelled with both donor and acceptor fluorophores (Z-LYTE, Invitrogen Ltd., Paisley, UK).
# The relevant enzyme (3000 ng/mL or 2000 ng/mL respectively, 2.5 μL) is incubated with the test compound (either 4 μg/mL, 0.4 μg/mL, 0.04 μg/mL, or 0.004 μg/mL, 2.5 μL each) for 2 hr at RT. The FRET peptides (8 μM, 2.5 μL), and appropriate ATP solutions (2.5 μL, 800 μM for c-Src, and 60 μM ATP for Syk) are then added to the enzymes/compound mixtures and incubated for 1 hr. Development reagent (protease, 5 μL) is added for 1 hr prior to detection in a fluorescence microplate reader (Varioskan® Flash, ThermoFisher Scientific).
# In all cases, the site-specific protease cleaves non-phosphorylated peptide only and eliminates the FRET signal. Phosphorylation levels of each reaction are calculated using the ratio of coumarin emission (donor) over fluorescein emission (acceptor), for which high ratios indicate high phosphorylation and low ratios indicate low phosphorylation levels.
# [3] = UC patient biopsies, DMSO control = 100%
# [4] = 1 μg/mL test compound, normalised to reference N-(4-(4-(3-(3-tert-butyl-1-p-tolyl-1H-pyrazol-5-yl)ureido)naphthalen-1-yloxy)pyridin-2-yl)-2-methoxyacetamide
# [5] = 5 μg/mL test compound, normalised to the same reference compound
# Chain of c-Src (P12931 whole entry, looked up): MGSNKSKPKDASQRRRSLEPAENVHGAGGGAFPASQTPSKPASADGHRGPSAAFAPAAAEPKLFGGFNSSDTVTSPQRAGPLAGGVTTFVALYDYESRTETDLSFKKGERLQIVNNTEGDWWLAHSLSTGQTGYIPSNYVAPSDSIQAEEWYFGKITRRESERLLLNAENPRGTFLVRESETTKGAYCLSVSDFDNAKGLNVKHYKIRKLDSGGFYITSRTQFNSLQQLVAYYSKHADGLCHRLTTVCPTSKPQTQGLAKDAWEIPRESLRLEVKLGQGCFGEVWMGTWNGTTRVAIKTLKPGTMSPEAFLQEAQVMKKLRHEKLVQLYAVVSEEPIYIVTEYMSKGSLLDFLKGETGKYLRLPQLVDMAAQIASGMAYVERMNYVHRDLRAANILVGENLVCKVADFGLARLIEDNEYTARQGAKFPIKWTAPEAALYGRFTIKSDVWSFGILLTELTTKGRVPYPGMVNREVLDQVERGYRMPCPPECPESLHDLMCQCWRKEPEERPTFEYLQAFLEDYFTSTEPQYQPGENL
# Chain of p38 MAPKα (Q16539 whole entry): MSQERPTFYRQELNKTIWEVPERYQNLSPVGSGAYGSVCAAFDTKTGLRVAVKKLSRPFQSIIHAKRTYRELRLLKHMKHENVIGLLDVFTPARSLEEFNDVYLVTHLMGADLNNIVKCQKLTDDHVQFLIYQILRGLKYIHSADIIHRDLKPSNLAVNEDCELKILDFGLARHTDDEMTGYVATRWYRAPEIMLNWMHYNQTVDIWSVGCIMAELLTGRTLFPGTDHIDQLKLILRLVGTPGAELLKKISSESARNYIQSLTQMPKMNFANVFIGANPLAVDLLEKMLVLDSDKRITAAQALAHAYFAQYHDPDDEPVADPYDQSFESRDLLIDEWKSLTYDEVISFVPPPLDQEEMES
SMILES,"IL-1β release [1, 3]","IL-6 release [1, 3]","IL-8 release [1, 3]","cytokine (IL-1β, IL-6 and IL-8) release compared to the DMSO control ([1]; biopsies from ulcerative colitis patients)","Ulcer grade ([2]; 1 mg/kg oral BID, mice, 2 days)","LP inflammation ([2]; 1 mg/kg oral BID, mice, 2 days)","Ulcer grade ([2]; 5 mg/kg oral BID, mice, 2 days)","LP inflammation ([2]; 5 mg/kg oral BID, mice, 2 days)","inflammatory cell infiltrate in the reticular and laminar propria zone ([2]; TNBS colitis, mice)","activity in in vivo model of colonic inflammation (histopathology analysis) ([2]; TNBS colitis, mice, 2 days)",ulcer grade and epithelial repair compared to the vehicle control ([2]; dosed orally at either 1 or 5 mg/kg),% β-catenin induction (d-U937 cells; [4]),% β-catenin induction (d-U937 cells; [5]),pIC50 (p38 MAPKα),pIC50 (c-Src),"% β-catenin induction (d-U937 cells; 10 μg/mL test compound, normalised to the same reference compound)"
"C#Cc1cc(Nc2nccc(Oc3ccc(NC(=O)Nc4cc(C(C)(C)C)nn4C)c4ccccc34)n2)cc(C(=O)NCCN2CCOCC2)c1 [Example 1, 3-((4-((4-(3-(3-(tert-Butyl)-1-methyl-1H-pyrazol-5-yl)ureido)naphthalen-1-yl)oxy)pyrimidin-2-yl)amino)-5-ethynyl-N-(2-morpholinoethyl)benzamide]",3 ± 2%,8 ± 8%,2 ± 2%,significantly inhibited,3.3 ± 0.5,4.2 ± 0.2,3.2 ± 0.5,2.4 ± 0.3,marked reduction,significant activity,marked improvements,−1.5%,10.5%,,,
"COCCOCCOCCOc1cc(Nc2nccc(Oc3ccc(NC(=O)Nc4cc(C(C)(C)C)nn4C)c4ccccc34)n2)cc(OC)c1 [Example 2, 1-(3-(tert-Butyl)-1-methyl-1H-pyrazol-5-yl)-3-(4-((2-((3-methoxy-5-(2-(2-(2-methoxy-ethoxy)ethoxy)ethoxy)phenyl)amino)pyrimidin-4-yl)oxy)naphthalen-1-yl)urea]",,,,,,,,,,,,−2%,6.5%,8.00,8.30,4.5%
